Source: patent US20220144853A1, “IMIDAZOLINE DERIVATIVES AS CXCR4 MODULATORS” (Université de Paris, priority 2019, published 2022)
Where a name gives a salt, the structure may show the parent alone.

Each molecule was assayed on IFN production by activated PBMCs (assay: IFN production by R848-activated PBMCs from healthy donors, twINNE reporter cell line). Details: Homo sapiens, PBMC, means of two results over 2 healthy donors, R848 5 μg/mL, IT1t: mean over all experiments, read-out: IC50 of anti-inflammatory activity (IFN production).
Format: cell-based, human
Method: 2) The blood from healthy donors was also obtained from “Etablissement Français du Sang” (convention #19/EFS/029), Paris, France.
In vitro experiments were performed using human peripheral blood mononuclear cells (PBMCs) isolated by density centrifugation from peripheral blood leukocyte separation medium, lymphoprep (Stemcell Technologies).
PBMCs were cultured in RPMI 1640 (Sigma-Aldrich, MO, USA) containing 10% heat-inactivated fetal bovine serum (Sigma-Aldrich, MO, USA) at 37° C./5% CO2.
2) The PBMCs used herein were prepared as described in part A “immune cells preparation”, section 2) above. PBMCs were seeded at 4.10^6/mL. […] Cells were then stimulated with the TLR7/8 agonist resiquimod—R848 (Sigma-Aldrich, MO, USA) at 5 μg/mL.
2) To quantify the secretion of functional IFN, a biological assay based on a stable cell line where luciferase reporter gene is controlled by five Interferon-Stimulated Response Elements (twINNE cell line) was used. It is important to note that the twINNE cell line is the same as the above mentioned STING-37 cell line but with constitutively expressed nanoluciferase. First, supernatants of R848-stimulated PBMCs (see part B, section 2) above) were harvested after 24 h of stimulation and frozen at −20° C. for storage. Then, supernatants were dispensed in culture wells of a 96-well plate containing 35.103 twINNE cells per well in Dulbecco's Modified Eagle's Medium supplemented with 10% Foetal Bovine Serum, 100 U/mL Penicillin and 100 μg/mL Streptomycin (1% Pen-Strep) and 1 mM glutamine (Sigma-Aldrich, MO, USA) at 37° C./5% […]. After 24 h of culture, luciferase activity was determined by adding 60 μL of Bright-Go reagents (Promega, Wisconsin, USA) to culture wells and measuring bioluminescence with EnSpire Multimode Plate Reader (PerkinElmer, Massachusetts, USA). When stated, for IC50 calculation, dose-response curves fitted using the nonlin fit (variable slope) analysis in GraphPad Prism software (GraphPad Software, California, USA).

Question: How did the IC50 turn out when `C1=C(CSC2=N[C@H]3COC[C@H]3N2)N2C(=N[C@@H]3COC[C@@H]32)S1` (mixture of isomers) [Example 36, mixture of (4aS,7aR)-3-((((3aS,6aR)-3a,4,6,6a-tetrahydro-1H-furo[3,4-d]imidazol-2-yl)thio)methyl)-4a,5,7,7a-tetrahydrofuro[3′,4′:4,5]imidazo[2,1-b]thiazole dihydrochloride and (4aR,7aS)-3-((((3aR,6aS)-3a,4,6,6a-tetrahydro-1H-furo[3,4-d]imidazol-2-yl)thio)methyl)-4a,5,7,7a-tetrahydrofuro[3′,4′: 4,5]imidazo[2,1-b]thiazole dihydrochloride] was run?
Answer: ≥ 31 µM

Question: `CC1(C)CN=C(SCC2=CSC3=N[C@H]4CCCC(C4)N23)N1` (racemic) [Example 23, cis-3-(((5,5-dimethyl-4,5-dihydro-1H-imidazol-2-yl)thio)methyl)-6,7,8,9-tetrahydro-5H-5,9-methanothiazolo[3,2-a][1,3]diazocine dihydrochloride] was tested. Which IC50 did it give?
Answer: ≥ 31 µM

Question: How did the IC50 turn out when `CCCCC1CN=C(SCC2=CSC3=N[C@H]4CCCCC4N23)N1` (mixture of isomers) [Example 54, trans-3-(((5-butyl-4,5-dihydro-1H-imidazol-2-yl)thio)methyl)-4a,5,6,7,8,8a-hexahydrobenzo[4,5]imidazo[2,1-b]thiazole dihydrochloride] was run?
Answer: ≤ 10 µM

Question: Which IC50 does the source give for `C1=C(CSC2=NCC(Cc3ccccc3)N2)N2C(=N[C@H]3CCCCC32)S1` (mixture of isomers) [Example 55, trans-3-(((5-benzyl-4,5-dihydro-1H-imidazol-2-yl)thio)methyl)-4a,5,6,7,8,8a-hexahydrobenzo[4,5]imidazo[2,1-b]thiazole dihydrochloride] here?
Answer: ≤ 10 µM

Question: `C1=C(CSC2=N[C@H]3CCCC[C@@H]3N2)N2C(=N[C@H]3CCCCC32)S1` (mixture of isomers) [Example 56, trans-3-((((3aS,7aS)-3a,4,5,6,7,7a-hexahydro-1H-benzo[d]imidazol-2-yl)thio)methyl)-4a,5,6,7,8,8a-hexahydrobenzo[4,5]imidazo[2,1-b]thiazole dihydrochloride] was tested. Which IC50 did it give?
Answer: ≤ 10 µM

Question: For `C1=C(CSC2=NCCN2)N2C(=N[C@H]3CCCCC32)S1` (mixture of isomers) [Example 59, trans-3-(((4,5-dihydro-1H-imidazol-2-yl)thio)methyl)-4a,5,6,7,8,8a-hexahydrobenzo[4,5]imidazo[2,1-b]thiazole dihydrochloride], which IC50 is on record?
Answer: ≤ 10 µM

Question: Which IC50 does the source give for `CC(C)[C@@H]1N=C2SC=C(CSC3=NCC(C)(C)N3)N2[C@H]1C(C)C` (racemic) [Example 62, trans-3-(((5,5-dimethyl-4,5-dihydro-1H-imidazol-2-yl)thio)methyl)-5,6-diisopropyl-5,6-dihydroimidazo[2,1-b]thiazole dihydrochloride] here?
Answer: 10 to 31 µM

Question: How did the IC50 turn out when `CC1(C)CN2C(CSC3=N[C@H]4CCCC[C@@H]4N3)=CSC2=N1` [Example 4, 3-((((3aS,7aS)-3a,4,5,6,7,7a-hexahydro-1H-benzo[d]imidazol-2-yl)thio)methyl)-6,6-dimethyl-5,6-dihydroimidazo[2,1-b]thiazole dihydrochloride] was run?
Answer: ≤ 10 µM

Question: How did the IC50 turn out when `CC1(C)CN2C(CSC3=N[C@@H]4CCCC[C@@H]4N3)=CSC2=N1` [Example 5, 3-((((3R,7aS)-3a,4,5,6,7,7a-hexahydro-1H-benzo[d]imidazol-2-yl)thio)methyl)-6,6-dimethyl-5,6-dihydroimidazo[2,1-b]thiazole dihydrochloride] was run?
Answer: 10 to 31 µM

Question: Which IC50 does the source give for `C1=C(CSC2=NCCN2)N2CCN=C2S1` [Example 6, 3-(((4,5-dihydro-1H-imidazol-2-yl)thio)methyl)-5,6-dihydroimidazo[2,1-b]thiazole dihydrochloride] here?
Answer: 10 to 31 µM

Question: For `CC1(C)CN2C(CSC3=NCCN3)=CSC2=N1` [Example 8, 3-(((4,5-dihydro-1H-imidazol-2-yl)thio)methyl)-6,6-dimethyl-5,6-dihydroimidazo[2,1-b]thiazole dihydrochloride], which IC50 is on record?
Answer: 10 to 31 µM

Question: For `CC1(C)CN2C(CSC3=NCCCN3)=CSC2=N1` [Example 9, 6,6-dimethyl-3-(((1,4,5,6-tetrahydropyrimidin-2-yl)thio)methyl)-5,6-dihydroimidazo[2,1-b]thiazole dihydrochloride], which IC50 is on record?
Answer: ≥ 31 µM

Question: With `CN1CCN=C1SCC1=CSC2=NC(C)(C)CN12` [Example 11, 6,6-dimethyl-3-(((1-methyl-4,5-dihydro-1H-imidazol-2-yl)thio)methyl)-5,6-dihydroimidazo[2,1-b]thiazole dihydrochloride] as the molecule, how does the IC50 read?
Answer: ≤ 10 µM

Question: With `CC1(C)CN2C(CSC3=NCCCCN3)=CSC2=N1` [Example 12, 6,6-dimethyl-3-(((4,5,6,7-tetrahydro-1H-1,3-diazepin-2-yl)thio)methyl)-5,6-dihydroimidazo[2,1-b]thiazole dihydrochloride] as the molecule, how does the IC50 read?
Answer: ≥ 31 µM

Question: How did the IC50 turn out when `CCCCC1CN=C(SCC2=CSC3=NC(C)(C)CN23)N1` (centres unmarked) [Example 13, 3-(((5-butyl-4,5-dihydro-1H-imidazol-2-yl)thio)methyl)-6,6-dimethyl-5,6-dihydroimidazo[2,1-b]thiazole dihydrochloride] was run?
Answer: ≤ 10 µM

Question: `CC1(C)CN=C(SCC2=CSC3=NCCCN23)N1` [Example 14, 3-(((5,5-dimethyl-4,5-dihydro-1H-imidazol-2-yl)thio)methyl)-6,7-dihydro-5H-thiazolo[3,2-a]pyrimidine dihydrochloride] was tested. Which IC50 did it give?
Answer: ≥ 31 µM

Question: How did the IC50 turn out when `CC1(C)CN=C(SCC2=CSC3=NCCCCN23)N1` [Example 15, 3-(((5,5-dimethyl-4,5-dihydro-1H-imidazol-2-yl)thio)methyl)-5,6,7,8-tetrahydrothiazolo[3,2-a][1,3]diazepine dihydrochloride] was run?
Answer: ≥ 31 µM

Question: `CC1(C)CN2C(CSC3=NC(C)(C)C(C)(C)N3)=CSC2=N1` [Example 16, 6,6-dimethyl-3-(((4,4,5,5-tetramethyl-4,5-dihydro-1H-imidazol-2-yl)thio)methyl)-5,6-dihydroimidazo[2,1-b]thiazole dihydrochloride] was tested. Which IC50 did it give?
Answer: ≥ 31 µM

Question: With `CCCCC1CN2C(CSC3=NCC(C)(C)N3)=CSC2=N1` (centres unmarked) [Example 19, 6-butyl-3-(((4,4-dimethyl-4,5-dihydro-1H-imidazol-2-yl)thio)methyl)-5,6-dihydroinidazo[2,1-b]thiazole dihydrochloride] as the molecule, how does the IC50 read?
Answer: 10 to 31 µM

Question: `CC1(C)CN=C(SCC2=CSC3=NC(C)(C)C(C)(C)N23)N1` [Example 20, 3-(((5,5-dimethyl-4,5-dihydro-1H-imidazol-2-yl)thio)methyl)-5,5,6,6-tetramethyl-5,6-dihydroimidazo[2,1-b]thiazole dihydrochloride] was tested. Which IC50 did it give?
Answer: 10 to 31 µM

Question: `CC1(C)CN=C(SCC2=CSC3=NCCN23)N1` [Example 21, 3-(((5,5-dimethyl-4,5-dihydro-1H-imidazol-2-yl)thio)methyl)-5,6-dihydroimidazo[2,1-b]thiazole dihydrochloride] was tested. Which IC50 did it give?
Answer: 10 to 31 µM

Question: For `CC1(C)CN2C(CSC3=N[C@@H]4CCC[C@@H](C4)N3)=CSC2=N1` [Example 22, 3-((((1R,5S)-2,4-diazabicyclo[3.3.1]non-2-en-3-yl)thio)methyl)-6,6-dimethyl-5,6-dihydroimidazo[2,1-b]thiazole dihydrochloride], which IC50 is on record?
Answer: ≥ 31 µM

Question: With `CC1(C)CN2C(CSC3=NCC4(CC4)N3)=CSC2=N1` [Example 24, 3-(((4,6-diazaspiro[2.4]hept-5-en-5-yl)thio)methyl)-6,6-dimethyl-5,6-dihydroimidazo[2,1-b]thiazole dihydrochloride] as the molecule, how does the IC50 read?
Answer: 10 to 31 µM

Question: For `CC1(C)CN2C(CSC3=N[C@H]4COC[C@H]4N3)=CSC2=N1` [Example 25, (3aR,6aS)-2-(((6,6-dimethyl-5,6-dihydroinidazo[2,1-b]thiazol-3-yl)methyl)thio)-3a,4,6,6a-tetrahydro-1H-furo[3,4-d]imidazole dihydrochloride], which IC50 is on record?
Answer: ≥ 31 µM

Question: How did the IC50 turn out when `C1=C(CSC2=NCCN2)N2CCCN=C2S1` [Example 26, 3-(((4,5-dihydro-1H-imidazol-2-yl)thio)methyl)-6,7-dihydro-5H-thiazolo[3,2-a]pyrimidine dihydrochloride] was run?
Answer: ≥ 31 µM

Question: With `C1=C(CSC2=NCCN2)N2CCCCN=C2S1` [Example 27, 3-(((4,5-dihydro-1H-imidazol-2-yl)thio)methyl)-5,6,7,8-tetrahydrothiazolo[3,2-a][1,3]diazepine dihydrochloride] as the molecule, how does the IC50 read?
Answer: ≥ 31 µM

Question: With `CC1(C)CN=C(SCC2=CSC3=NC(C)(C)CN23)NC1` [Example 28, 3-(((5,5-dimethyl-1,4,5,6-tetrahydropyrimidin-2-yl)thio)methyl)-6,6-dimethyl-5,6-dihydroimidazo[2,1-b]thiazole dihydrochloride] as the molecule, how does the IC50 read?
Answer: ≥ 31 µM

Question: Which IC50 does the source give for `C1=C(CSC2=NCCCN2)N2CCCN=C2S1` [Example 29, 3-(((1,4,5,6-tetrahydropyrimidin-2-yl)thio)methyl)-6,7-dihydro-5H-thiazolo[3,2-a]pyrimidine dihydrochloride] here?
Answer: ≥ 31 µM

Question: `CCCCC1CN=C(SCC2=CSC3=NCCN23)N1` (centres unmarked) [Example 30, 3-(((5-butyl-4,5-dihydro-1H-imidazol-2-yl)thio)methyl)-5,6-dihydroimidazo[2,1-b]thiazole dihydrochloride] was tested. Which IC50 did it give?
Answer: ≤ 10 µM
